Test results published in ChEMBL document CHEMBL4819100, “Antibacterial and synergistic activity of 6β-hydroxy-3-oxolup-20(29)-en-28-oic acid (6β-hydroxy betunolic acid) isolated from Schumacheria castaneifolia vahl” (2021).
In brackets after ≈: the same amount, converted by molar mass.

How the values were obtained:
Type in all cases: functional
Staphylococcus aureus [1] = test: Antibacterial activity against Staphylococcus aureus ATCC 25923 assessed as reduction in bacterial growth incubated for 24 hrs by CLSI based serial dilution method
Staphylococcus aureus [2] = test: Antibacterial activity against Staphylococcus aureus ATCC 29213 assessed as reduction in bacterial growth incubated for 24 hrs by CLSI based serial dilution method
Acinetobacter [3] = test: Antibacterial activity against Acinetobacter sp. 103 assessed as reduction in bacterial growth incubated for 24 hrs by CLSI based serial dilution method
Acinetobacter [4] = test: Antibacterial activity against Acinetobacter sp. 121 assessed as reduction in bacterial growth incubated for 24 hrs by CLSI based serial dilution method
Acinetobacter [5] = test: Antibacterial activity against Acinetobacter sp. 122 assessed as reduction in bacterial growth incubated for 24 hrs by CLSI based serial dilution method
Acinetobacter [6] = test: Antibacterial activity against Acinetobacter sp. 126 assessed as reduction in bacterial growth incubated for 24 hrs by CLSI based serial dilution method
Pseudomonas aeruginosa = test: Antibacterial activity against Pseudomonas aeruginosa ATCC 27853 assessed as reduction in bacterial growth incubated for 24 hrs by CLSI based serial dilution method
Enterococcus faecalis = test: Antibacterial activity against Enterococcus faecalis ATCC 29212 assessed as reduction in bacterial growth incubated for 24 hrs by CLSI based serial dilution method
Staphylococcus aureus [7] = test: Antibacterial activity against methicillin-resistant Staphylococcus aureus 114 assessed as reduction in bacterial growth incubated for 24 hrs by CLSI based serial dilution method
Staphylococcus aureus [8] = test: Antibacterial activity against methicillin-resistant Staphylococcus aureus 124 assessed as reduction in bacterial growth incubated for 24 hrs by CLSI based serial dilution method
Staphylococcus aureus [9] = test: Antibacterial activity against methicillin-resistant Staphylococcus aureus 58 assessed as reduction in bacterial growth incubated for 24 hrs by CLSI based serial dilution method
Staphylococcus aureus [10] = test: Antibacterial activity against methicillin-resistant Staphylococcus aureus 59 assessed as reduction in bacterial growth incubated for 24 hrs by CLSI based serial dilution method
Escherichia coli [11] = test: Antibacterial activity against Escherichia coli ATCC 35218 assessed as reduction in bacterial growth incubated for 24 hrs by CLSI based serial dilution method
Escherichia coli [12] = test: Antibacterial activity against Escherichia coli ATCC 25922 assessed as reduction in bacterial growth incubated for 24 hrs by CLSI based serial dilution method
Klebsiella pneumoniae [13] = test: Antibacterial activity against Klebsiella pneumoniae ATCC BAA-1705 assessed as reduction in bacterial growth incubated for 24 hrs by CLSI based serial dilution method
Klebsiella pneumoniae [14] = test: Antibacterial activity against Klebsiella pneumoniae ATCC BAA-1706 assessed as reduction in bacterial growth incubated for 24 hrs by CLSI based serial dilution method
Staphylococcus aureus [15] = test: Antibacterial activity against Staphylococcus aureus assessed as reduction in bacterial growth incubated for 24 hrs in presence of oxacillin by CLSI based serial dilution method
Staphylococcus aureus [16] = test: Antibacterial activity against methicillin-resistant Staphylococcus aureus 114 assessed as reduction in bacterial growth incubated for 24 hrs in presence of oxacillin by CLSI based serial dilution method
Staphylococcus aureus [17] = test: Antibacterial activity against methicillin-resistant Staphylococcus aureus 124 assessed as reduction in bacterial growth incubated for 24 hrs in presence of oxacillin by CLSI based serial dilution method
Staphylococcus aureus [18] = test: Antibacterial activity against methicillin-resistant Staphylococcus aureus 58 assessed as reduction in bacterial growth incubated for 24 hrs in presence of oxacillin by CLSI based serial dilution method
Staphylococcus aureus [19] = test: Antibacterial activity against methicillin-resistant Staphylococcus aureus 59 assessed as reduction in bacterial growth incubated for 24 hrs in presence of oxacillin by CLSI based serial dilution method
Staphylococcus aureus [20] = test: Antibacterial activity against Staphylococcus aureus assessed as fractional inhibitory concentration incubated for 24 hrs in presence of oxacillin by CLSI based serial dilution method
Staphylococcus aureus [21] = test: Antibacterial activity against methicillin-resistant Staphylococcus aureus 114 assessed as fractional inhibitory concentration incubated for 24 hrs in presence of oxacillin by CLSI based serial dilution method
Staphylococcus aureus [22] = test: Antibacterial activity against methicillin-resistant Staphylococcus aureus 124 assessed as fractional inhibitory concentration incubated for 24 hrs in presence of oxacillin by CLSI based serial dilution method
Staphylococcus aureus [23] = test: Antibacterial activity against methicillin-resistant Staphylococcus aureus 58 assessed as fractional inhibitory concentration incubated for 24 hrs in presence of oxacillin by CLSI based serial dilution method
Staphylococcus aureus [24] = test: Antibacterial activity against methicillin-resistant Staphylococcus aureus 59 assessed as fractional inhibitory concentration incubated for 24 hrs in presence of oxacillin by CLSI based serial dilution method
Staphylococcus aureus [25] = test: Antibacterial activity against Staphylococcus aureus assessed as fractional inhibitory concentration index incubated for 24 hrs in presence of oxacillin by CLSI based serial dilution method
Staphylococcus aureus [26] = test: Antibacterial activity against methicillin-resistant Staphylococcus aureus 114 assessed as fractional inhibitory concentration index incubated for 24 hrs in presence of oxacillin by CLSI based serial dilution method
Staphylococcus aureus [27] = test: Antibacterial activity against methicillin-resistant Staphylococcus aureus 124 assessed as fractional inhibitory concentration index incubated for 24 hrs in presence of oxacillin by CLSI based serial dilution method
Staphylococcus aureus [28] = test: Antibacterial activity against methicillin-resistant Staphylococcus aureus 58 assessed as fractional inhibitory concentration index incubated for 24 hrs in presence of oxacillin by CLSI based serial dilution method
Staphylococcus aureus [29] = test: Antibacterial activity against methicillin-resistant Staphylococcus aureus 59 assessed as fractional inhibitory concentration index incubated for 24 hrs in presence of oxacillin by CLSI based serial dilution method

SMILES	MIC (Staphylococcus aureus [2]) [µg/mL]	MIC (Acinetobacter [3]) [µg/mL]	MIC (Acinetobacter [4]) [µg/mL]	MIC (Acinetobacter [5]) [µg/mL]	MIC (Acinetobacter [6]) [µg/mL]	MIC (Pseudomonas aeruginosa) [µg/mL]	MIC (Enterococcus faecalis) [µg/mL]	MIC (Staphylococcus aureus [7]) [µg/mL]	MIC (Staphylococcus aureus [8]) [µg/mL]	MIC (Staphylococcus aureus [9]) [µg/mL]	MIC (Staphylococcus aureus [10]) [µg/mL]	MIC (Escherichia coli [11]) [µg/mL]	MIC (Escherichia coli [12]) [µg/mL]	MIC (Klebsiella pneumoniae [13]) [µg/mL]	further results
C=C(C)[C@@H]1CC[C@]2(C(=O)O)CC[C@]3(C)[C@H](CC[C@@H]4[C@@]5(C)CCC(=O)C(C)(C)[C@@H]5[C@H](O)C[C@]43C)[C@@H]12	32 (≈ 68 µM)	> 1020	> 1020	> 1020	> 1020	> 1020	32 (≈ 68 µM)	32 (≈ 68 µM)	32 (≈ 68 µM)	32 (≈ 68 µM)	16 (≈ 34 µM)	> 1020	> 1020	> 1020	MIC (Staphylococcus aureus [1]): 16 µg/mL (≈ 34 µM); MIC (Klebsiella pneumoniae [14]): > 1020 µg/mL; MIC (Staphylococcus aureus [15]): 8 µg/mL; MIC (Staphylococcus aureus [16]): 16 µg/mL; MIC (Staphylococcus aureus [17]): 32 µg/mL; MIC (Staphylococcus aureus [18]): 16 µg/mL; MIC (Staphylococcus aureus [19]): 8 µg/mL; FIC (Staphylococcus aureus [20]): 0.25; FIC (Staphylococcus aureus [21]): 0.5; FIC (Staphylococcus aureus [22]): 1; FIC (Staphylococcus aureus [23]): 0.5; FIC (Staphylococcus aureus [24]): 0.5; fractional inhibitory concentration index (FICI) (Staphylococcus aureus [25]): 0.49; fractional inhibitory concentration index (FICI) (Staphylococcus aureus [26]): 0.53; fractional inhibitory concentration index (FICI) (Staphylococcus aureus [27]): 2; fractional inhibitory concentration index (FICI) (Staphylococcus aureus [28]): 1; fractional inhibitory concentration index (FICI) (Staphylococcus aureus [29]): 0.75
C[C@@H](O)[C@H]1C(=O)N2C(C(=O)O)=C(S[C@@H]3CN[C@H](C(=O)N(C)C)C3)[C@H](C)[C@H]12 [MEROPENEM]	–	64 (≈ 167 µM)	64 (≈ 167 µM)	128 (≈ 334 µM)	128 (≈ 334 µM)	0.12 (≈ 0.313 µM)	–	–	–	–	–	0.008 (≈ 0.0209 µM)	0.008 (≈ 0.0209 µM)	8 (≈ 20.9 µM)	–
Cc1onc(-c2ccccc2)c1C(=O)N[C@@H]1C(=O)N2[C@@H]1SC(C)(C)[C@@H]2C(=O)O [OXACILLIN]	0.12 (≈ 0.299 µM)	–	–	–	–	–	8 (≈ 19.9 µM)	16 (≈ 39.9 µM)	16 (≈ 39.9 µM)	16 (≈ 39.9 µM)	16 (≈ 39.9 µM)	–	–	–	–
